Data from ChEMBL document CHEMBL5052840, “Pharmaceutical compounds and therapeutic methods” (2020).

How the values were obtained:
Assay type in all cases: ADME, organism-based
[1] = Plasma concentration in male C57BL/6 mouse at 10 mg/kg, iv administered as single dose measured at 1 hr measured by LC/MS-MS analysis
[2] = Brain concentration in male C57BL/6 mouse at 10 mg/kg, ip administered as single dose measured at 0.35 hrs measured by LC/MS-MS analysis; details: read-out: Drug uptake
[3] = Ratio of drug level in male C57BL/6 mouse brain to plasma at 10 mg/kg, ip administered as single dose measured at 0.35 hrs measured by LC/MS-MS analysis; details: read-out: BPR
[4] = Plasma concentration in male C57BL/6 mouse at 10 mg/kg, ip administered as single dose measured at 3 hrs measured by LC/MS-MS analysis
[5] = Plasma concentration in male C57BL/6 mouse at 10 mg/kg, iv administered as single dose measured at 0.35 hrs measured by LC/MS-MS analysis
[6] = Plasma concentration in male C57BL/6 mouse at 10 mg/kg, po administered as single dose measured at 0.08 hrs measured by LC/MS-MS analysis
[7] = Brain concentration in male C57BL/6 mouse at 10 mg/kg, po administered as single dose measured at 6 hrs measured by LC/MS-MS analysis; details: read-out: Drug uptake
[8] = Ratio of drug level in male C57BL/6 mouse brain to plasma at 10 mg/kg, iv administered as single dose measured at 0.08 hrs measured by LC/MS-MS analysis; details: read-out: BPR
[9] = Brain concentration in male C57BL/6 mouse at 10 mg/kg, po administered as single dose measured at 3 hrs measured by LC/MS-MS analysis; details: read-out: Drug uptake
[10] = Plasma concentration in male C57BL/6 mouse at 10 mg/kg, po administered as single dose measured at 0.35 hrs measured by LC/MS-MS analysis
[11] = Plasma concentration in male C57BL/6 mouse at 10 mg/kg, po administered as single dose measured at 6 hrs measured by LC/MS-MS analysis
[12] = Ratio of drug level in male C57BL/6 mouse brain to plasma at 10 mg/kg, po administered as single dose measured at 3 hrs measured by LC/MS-MS analysis; details: read-out: BPR

concentration at 1 h [1]: 80.7 ng/mL | concentration at 0.35 h [2]: 680 ng/g | Kp at 0.35 h [3]: 0.96 | concentration at 3 h [4]: 1.43 ng/mL | concentration at 0.35 h [5]: 535 ng/mL | concentration at 0.08 h [6]: 175 ng/mL | concentration at 6 h [7]: 4.52 ng/g | Kp at 0.08 h [8]: 1.07 | concentration at 3 h [9]: 5.78 ng/g | concentration at 0.35 h [10]: 138 ng/mL | concentration at 6 h [11]: 2.5 ng/mL | Kp at 3 h [12]: 4.34
SMILES: Cc1nc2ccccn2c1-c1csc(Nc2ccc3c(c2)OC(F)(F)O3)n1.Cl
